Results taken from patent publication US20110172230A1, “UREA COMPOUND OR SALT THEREOF” (priority 2006, published 2011).
Counter-ions that a name gives are not always drawn.

Target: T1, FAAH (Homo sapiens, UniProt O00519)
T1 construct: host or cells: 5637 human bladder epithelial cancer-derived cells, not transfected
T1 sequence (O00519 1-579): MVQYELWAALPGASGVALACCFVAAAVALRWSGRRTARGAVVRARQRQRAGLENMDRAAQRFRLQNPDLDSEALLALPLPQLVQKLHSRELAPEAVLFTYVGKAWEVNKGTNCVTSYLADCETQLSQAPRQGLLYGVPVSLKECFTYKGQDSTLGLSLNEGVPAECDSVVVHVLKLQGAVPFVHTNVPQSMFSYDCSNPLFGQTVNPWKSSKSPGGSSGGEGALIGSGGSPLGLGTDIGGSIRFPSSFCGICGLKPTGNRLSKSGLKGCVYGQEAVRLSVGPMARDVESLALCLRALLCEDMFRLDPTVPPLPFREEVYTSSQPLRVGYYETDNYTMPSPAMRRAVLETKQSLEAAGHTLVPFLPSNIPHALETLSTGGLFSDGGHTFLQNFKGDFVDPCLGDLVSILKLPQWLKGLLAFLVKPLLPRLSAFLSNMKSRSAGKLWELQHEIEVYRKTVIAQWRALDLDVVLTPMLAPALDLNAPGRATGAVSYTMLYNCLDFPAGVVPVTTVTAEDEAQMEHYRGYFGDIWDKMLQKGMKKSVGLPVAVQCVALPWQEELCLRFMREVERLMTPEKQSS
Experiment: Screening for an FAAH activity-inhibiting substance with human bladder epithelial cancer-derived cell line 5637 cells (IC50)
Type: cell-based
Conditions: FAAH activity in human bladder epithelial cancer-derived 5637 cells, 37° C., 30 minutes
Protocol: Screening for an FAAH Activity-Inhibiting Substance with a Human Bladder Epithelial Cancer-Derived Cell
(1) Screening for an FAAH Activity Inhibiting Substance
Human bladder epithelial cancer-derived cell line 5637 cells (HTB-9; ATCC) were seeded on a 48-well cell culture plate in an amount of 1×10^5 cell/well, using 10% fetal bovine serum (HyClone)-containing RPMI1640 medium (Invitrogen Corporation). After incubated at 37° C. for 12 hours or longer, the cells were washed with 400 μl/well of a buffer (Hank's Balanced Salt Solution, 20 mM Hepes-NaOH (pH 7.4)). A test substance dissolved in DMSO was added to a substrate solution (the above buffer containing 3 μCi/ml radiolabeled anandamide (Anandamide [ethanolamine 1-^3H]) and 10 μM anandamide) so as to have a concentration from 0.003 nM to 30 nM. As a control, DMSO alone was added. 100 μl/well of the substrate solution was added to the above cells, and incubated in a CO2 incubator at 37° C. for 30 minutes. Next, the cell culture plate was transferred onto ice, and the substrate solution was removed by suction; and 75 μl/well of a cytolytic solution (the above buffer containing 0.5% Triton X-100, and 10 μM of FAAH-inhibitory activity-having compound, 3′-carbamoylbiphenyl-3-yl ester (URB597; Cayman chemical; Kathuria et al., Nature Med., Vol. 9, pp. 76-81, 2003)) was added thereto, followed by stirring. The resulting cell lysate in every well was individually transferred into a 1.5 ml sample tube, to which was added 150 μl of 1:1 (ratio by volume) chloroform/methanol solution, followed by vortexing. This was centrifuged (15000 rpm, 2 minutes), whereby the decomposed product, ethanolamine (ethanolamine 1-^3H) was separated in the upper layer (water/methanol layer) and the unreacted radiolabeled anandamide was in the lower layer (chloroform layer). 25 μl of the upper layer was transferred into a 96-well organic solvent-resistant white microplate (PicoPlate-96; Perkin Elmer, Inc.), 150 μl of Microscint-20 (Perkin Elmer, Inc.) was added thereto, and this was measured with a microplate scintillation counter (TopCount™; Beckman Coulter, Inc.). As compared with the control, the substance that gave a decreased value was selected as an FAAH activity-inhibiting substance.
(2) Measurement of the IC50 Value of the FAAH Activity Inhibiting Substance
The compound dissolved in DMSO to have a concentration of 10 mM was dissolved in the substrate solution so as to have a varying concentration from 0.003 nM to 30 nM. According to the method mentioned above, the compound was analyzed for its influence on FAAH activity. As a negative control, DMSO was used. As a positive control, URB597 was added to the substrate solution to have a concentration of 10 μM. Based on the measured value of the positive control, 0%, and on the measured value of the negative control, 100%, the IC50 value of the test substance was obtained. Furthermore, Ex represents Example No. as denoted below.

SMILES | IC50 [nM]
O=C(c1ccc(OCCC2CCCCC2)cc1)C1CCN(C(=O)Nc2cccnc2)CC1 [Example 75] | 0.81
O=C(c1ccc(OCc2cccc(F)c2)cc1)C1CCN(C(=O)Nc2cccnc2)CC1 [Example 59] | 0.82
O=C(Nc1nccnc1Cl)N1CCC(Oc2cccc(OCCC3CCCCC3)c2)CC1 [Example 488] | 0.85
O=C(Nc1cccnc1)N1CCN(Cc2cccc(OCCC3CCCCC3)c2)CC1 [Example 388] | 0.08
Nc1ccnn1C(=O)N1CCN(C(=O)c2cccc(OCCC3CCCCC3)c2)CC1 [Example 159] | 0.29
O=C(Nc1cccnc1)N1CCC(Oc2ccc(OCc3cccc(F)c3)cc2)CC1 [Example 1, 4-{4-[(3-fluorobenzyl)oxy]phenoxy}-N-(pyridin-3-yl)piperidine-1-carboxamide hydrochloride] | 5.6
CN(Cc1cccc(F)c1)c1ccc(C(=O)N2CCN(C(=O)Nc3cccnc3)CC2)cc1 [Example 322] | 0.54
O=C(Nc1cccnc1)N1CCN(C(=O)c2cccc(OCCc3ccccc3)c2)CC1 [Example 426] | 0.12
O=C(Nc1cccnc1)N1CCN(C(=O)c2cccc(OCC3CCCCC3)c2)CC1 [Example 320] | 0.24
CCCCCCOc1ccc(C(=O)N2CCN(C(=O)Nc3cccnc3)CC2)cc1 [Example 317] | 0.57
O=C(Nc1ccc(-n2cccn2)nc1)N1CCN(C(=O)c2cccc(OCCC3CCCCC3)c2)CC1 [Example 156] | 0.33
O=C(Cc1ccc(OCc2cccc(F)c2)cc1)N1CCN(C(=O)Nc2cccnc2)CC1 [Example 136] | 0.22
O=C(c1ccc(OCc2cccc(F)c2)cc1)N1CCN(C(=O)n2ccnc2)CC1 [Example 300] | 0.16
CC(=O)Nc1ccc(NC(=O)N2CCN(C(=O)c3cccc(OCCC4CCCCC4)c3)CC2)cn1 [Example 179] | 0.21
O=C(N1CCC(Oc2ccc(OCc3cccc(F)c3)cc2)CC1)n1ccnc1 [Example 12, 4-{4-[(3-fluorobenzyl)oxy]phenoxy}-1-(1H-imidazol-1-ylcarbonyl)piperidine] | 0.06
